According to ChEMBL document CHEMBL3714750, “Aryl sulfonamides” (2008):

molecular target: T1, C-C chemokine receptor type 9 (Homo sapiens, UniProt P51686); assay: Antagonist activity against CCR9 in human MOLT4 cells assessed as inhibition of human recombinant TECK-induced calcium response pre-treated before TECK stimulation by Flou-4-AM dye based FLIPR assay; type: functional, cell-based, MOLT-4
T1 sequence (P51686 whole entry): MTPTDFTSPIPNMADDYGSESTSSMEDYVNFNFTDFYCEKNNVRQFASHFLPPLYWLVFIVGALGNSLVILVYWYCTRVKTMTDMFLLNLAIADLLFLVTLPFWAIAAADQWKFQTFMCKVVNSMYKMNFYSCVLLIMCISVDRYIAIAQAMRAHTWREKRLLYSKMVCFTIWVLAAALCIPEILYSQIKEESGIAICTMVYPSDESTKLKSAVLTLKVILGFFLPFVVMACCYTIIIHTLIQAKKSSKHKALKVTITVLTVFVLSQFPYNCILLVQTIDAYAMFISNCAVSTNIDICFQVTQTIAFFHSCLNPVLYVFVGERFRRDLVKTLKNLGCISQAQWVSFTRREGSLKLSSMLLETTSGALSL

| SMILES | IC50 [nM] |
| --- | --- |
| O=C(c1ccncc1)c1cc(Cl)ccc1NS(=O)(=O)c1ccc(C(F)(F)F)cc1 | > 1000 |
| Cc1cc(C(=O)c2cc(Cl)ccc2NS(=O)(=O)c2ccc(C(C)(C)C)cc2)cc[n+]1[O-] | < 1000 |
| O=C(c1ccncc1)c1cc(Cl)ccc1NS(=O)(=O)c1ccc(N2CCC2)cc1 | < 1000 |
| CC(C)Oc1ccc(S(=O)(=O)Nc2ccc(Cl)cc2C(=O)c2ccncc2)cc1 | < 1000 |
| CN(C)C(=O)C(C)(C)c1ccc(S(=O)(=O)Nc2ccc(Cl)cc2C(=O)c2ccncc2)cc1 | > 1000 |
| CC(=O)c1ccc(S(=O)(=O)Nc2ccc(Cl)cc2C(=O)c2ccc(C)[n+]([O-])c2)cc1 | < 1000 |
| Cc1ccc(C(=O)c2cc(Cl)ccc2NS(=O)(=O)c2ccc(C(C)(C)c3ncco3)cc2)c[n+]1[O-] | < 1000 |
| Cc1ncccc1C(=O)c1cc(Cl)ccc1NS(=O)(=O)c1ccc(C(C)(C)C)cc1 | < 1000 |
| O=C(c1ccncc1)c1cc(Cl)ccc1NS(=O)(=O)c1ccc(N2CCNCC2)cc1 | > 1000 |
| CCc1ccc(S(=O)(=O)Nc2ccc(Cl)cc2C(=O)c2ccncc2)cc1 | < 1000 |
| COc1ccc(S(=O)(=O)Nc2ccc(Br)cc2C(=O)c2ccncc2)cc1 | > 1000 |
| COc1ccc(S(=O)(=O)Nc2ccc(Cl)cc2C(=O)c2ccncc2)cc1 | < 1000 |
| Cc1ncccc1C(=O)c1cc(Cl)ccc1NS(=O)(=O)c1ccc(S(C)(=O)=O)cc1 | < 1000 |
| CS(=O)(=O)c1ccc(S(=O)(=O)Nc2ccc(Cl)cc2C(=O)c2ccc(Cl)[n+]([O-])c2)cc1 | < 1000 |
| CC(C)(C)c1ccc(S(=O)(=O)Nc2ccc(Br)cc2C(=O)c2ccncc2)cc1 | < 1000 |
| CC(C)Oc1ccc(S(=O)(=O)Nc2ccc(Br)cc2C(=O)c2ccncc2)cc1 | < 1000 |
| O=C(c1ccncn1)c1cc(Cl)ccc1NS(=O)(=O)c1ccc(-c2cnco2)cc1 | > 1000 |
| Cc1ccc(C(=O)c2cc(Cl)ccc2NS(=O)(=O)c2ccc(OC(C)C)cc2)cn1 | < 1000 |
| O=C(c1ccncc1)c1cc(Cl)ccc1NS(=O)(=O)c1ccc(N2CCN(CC(F)(F)F)CC2)cc1 | > 1000 |
| Cc1ccc(C(=O)c2cc(Cl)ccc2NS(=O)(=O)c2ccc(C(C)(C)c3cnco3)cc2)cn1 | < 1000 |
| CC(=O)N1CCN(c2ccc(S(=O)(=O)Nc3ccc(Cl)cc3C(=O)c3ccncc3)cc2)CC1 | > 1000 |
| Cc1ccc(C(=O)c2cc(Cl)ccc2NS(=O)(=O)c2ccc(N3C[C@@H](C)O[C@@H](C)C3)c(F)c2)cn1 | < 1000 |
| O=C(c1ccncc1)c1cc(Cl)ccc1NS(=O)(=O)c1ccc(CCc2ncco2)cc1 | < 1000 |

| SMILES | IC50 [nM] |
| --- | --- |
| CC(=O)c1ccc(S(=O)(=O)Nc2ccc(Cl)cc2C(=O)c2ccc(C)nc2)cc1 | > 1000 |
| Cc1noc(C)c1-c1ccc(S(=O)(=O)Nc2ccc(Cl)cc2C(=O)c2ccncc2)cc1 | < 1000 |
| Cc1ccc(C(=O)c2cc(Cl)ccc2NS(=O)(=O)c2ccc(N3CCOCC3)c(F)c2)cn1 | < 1000 |
| Cc1cc(C(=O)c2cc(Cl)ccc2NS(=O)(=O)c2ccc(OC(C)C)cc2)ccn1 | < 1000 |
| CC(C)(C)OC(=O)n1cccc1-c1ccc(S(=O)(=O)Nc2ccc(Cl)cc2C(=O)c2ccncc2)cc1 | > 1000 |
| O=C(c1cccnc1)c1cc(Cl)ccc1NS(=O)(=O)c1ccc(N2CCOCC2)cc1 | < 1000 |
| Cc1cc(C(=O)c2cc(Cl)ccc2NS(=O)(=O)c2ccc(OC(C)C)cc2)cc[n+]1[O-] | < 1000 |
| Cc1ccc(C(=O)c2cc(Cl)ccc2NS(=O)(=O)c2ccc(-c3cnc(C)o3)cc2)cn1 | > 1000 |
| COc1ccc(S(=O)(=O)Nc2ccc(Cl)cc2C(=O)Nc2ccccc2)cc1 | < 1000 |
| CCC(C)(C)c1ccc(S(=O)(=O)Nc2ccc(Cl)cc2C(=O)c2ccncc2)cc1 | < 1000 |
| CC(C)(C)c1ccc(S(=O)(=O)Nc2ccc(Cl)cc2C(=O)c2ccccn2)cc1 | < 1000 |
| C[C@@H]1CN(c2ccc(S(=O)(=O)Nc3ccc(Cl)cc3C(=O)c3cc[n+]([O-])cc3)cc2)C[C@H](C)O1 | < 1000 |
| CC1(c2ccc(S(=O)(=O)Nc3ccc(Cl)cc3C(=O)c3cccnc3)cc2)CCOCC1 | < 1000 |
| CC(C)(C)c1ccc(S(=O)(=O)Nc2ccc(Cl)cc2C(=O)c2ccnc(C#N)c2)cc1 | < 1000 |
| Cn1cc(C(=O)c2cc(Cl)ccc2NS(=O)(=O)c2ccc(C(C)(C)C)cc2)nn1 | < 1000 |
| CC(C)c1ccc(S(=O)(=O)Nc2ccc(Br)cc2C(=O)c2ccncc2)cc1 | < 1000 |
| CN(C)C(=O)CCc1ccc(S(=O)(=O)Nc2ccc(Cl)cc2C(=O)c2ccncc2)cc1 | > 1000 |
| O=C(c1ccncc1)c1cc(Cl)ccc1NS(=O)(=O)c1ccc(-c2ncco2)cc1 | < 1000 |
| O=C(c1cc[n+]([O-])cc1)c1cc(Cl)ccc1NS(=O)(=O)c1ccc(-c2ccoc2)cc1 | < 1000 |
| C[C@@H]1CN(c2ccc(S(=O)(=O)Nc3ccc(Cl)cc3C(=O)c3ccncc3)cc2)C[C@H](C)O1 | < 1000 |
| CC(C)(c1ccc(S(=O)(=O)Nc2ccc(Cl)cc2C(=O)c2cc[n+]([O-])cc2)cc1)c1ncco1 | < 1000 |
| Cc1cccc(C(=O)c2cc(Cl)ccc2NS(=O)(=O)c2ccc(C(C)(C)C)cc2)n1 | < 1000 |

Second part, the compound after the results:

| IC50 [nM] | SMILES |
| --- | --- |
| < 1000 | Cc1ccc(C(=O)c2cc(Cl)ccc2NS(=O)(=O)c2ccc(C(C)(C)c3ncco3)cc2)cn1 |
| < 1000 | CC(C)(C)c1ccc(S(=O)(=O)Nc2ccc(Cl)cc2C(=O)c2cc[nH]n2)cc1 |
| < 1000 | O=C(c1ccncc1)c1cc(Cl)ccc1NS(=O)(=O)c1ccc(-c2ccoc2)cc1 |
| < 1000 | CC(C)Oc1ccc(S(=O)(=O)Nc2ccc(Cl)cc2C(=O)c2cccnc2)cc1 |
| < 1000 | CC(C)(C)c1ccc(S(=O)(=O)Nc2ccc(F)c(F)c2C(=O)c2ccncc2)cc1 |
| < 1000 | Cc1cc(C(=O)c2cc(Cl)ccc2NS(=O)(=O)c2ccc(C3(C)CCOCC3)cc2)ccn1 |
| > 1000 | CC(=O)c1ccc(S(=O)(=O)Nc2ccc(Cl)cc2C(=O)c2ccnc(C)c2)cc1 |
| < 1000 | Cc1ccc(C(=O)c2cc(Cl)ccc2NS(=O)(=O)c2ccc(S(C)(=O)=O)cc2)c[n+]1[O-] |
| < 1000 | O=C(c1ccncc1)c1cc(Cl)ccc1NS(=O)(=O)c1ccc(OC(F)(F)F)cc1 |
| > 1000 | CC(C)(C)c1ccc(S(=O)(=O)Nc2ccc(Cl)cc2C(=O)c2ccc(N3CCOCC3)nc2)cc1 |
| < 1000 | O=C(c1ccncc1)c1cc(Cl)ccc1NS(=O)(=O)c1ccc(I)cc1 |
| < 1000 | CC1(c2ccc(S(=O)(=O)Nc3ccc(Cl)cc3C(=O)c3cc[n+]([O-])cc3)cc2)CCOCC1 |
| < 1000 | COC(=O)CCc1ccc(S(=O)(=O)Nc2ccc(Cl)cc2C(=O)c2ccncc2)cc1 |
| > 1000 | COc1ccc(S(=O)(=O)Nc2ccc(Cl)cc2C(=O)N2CCNCC2)cc1 |
| < 1000 | Cc1ccc(C(=O)c2cc(Cl)ccc2NS(=O)(=O)c2ccc(C(C)(C)C)cc2)c[n+]1[O-] |
| < 1000 | CC(C)(CO)c1ccc(S(=O)(=O)Nc2ccc(Cl)cc2C(=O)c2ccncc2)cc1 |
| > 1000 | COc1ccc(S(=O)(=O)Nc2ccc(Cl)cc2C(=O)N2CCCCC2)cc1 |
| < 1000 | C[C@@H]1CN(c2ccc(S(=O)(=O)Nc3ccc(Cl)cc3C(=O)c3ccc[n+]([O-])c3)cc2)C[C@H](C)O1 |
| < 1000 | Cc1cccc(C(=O)c2cc(Cl)ccc2NS(=O)(=O)c2ccc(C(C)(C)c3ncco3)cc2)n1 |
| < 1000 | Cc1c(C(=O)c2cc(Cl)ccc2NS(=O)(=O)c2ccc(C(C)(C)C)cc2)ccc[n+]1[O-] |
| < 1000 | O=C(c1ccncc1)c1cc(Cl)ccc1NS(=O)(=O)c1ccc(-c2ccsc2)cc1 |

| IC50 [nM] | SMILES |
| --- | --- |
| > 1000 | Cn1nc(C(=O)c2cc(Cl)ccc2NS(=O)(=O)c2ccc(C(C)(C)C)cc2)c2ccccc21 |
| < 1000 | O=C(c1cc[n+]([O-])cc1)c1cc(Cl)ccc1NS(=O)(=O)c1ccc(N2CCOCC2)cc1 |
| < 1000 | Cc1ccncc1C(=O)c1cc(Cl)ccc1NS(=O)(=O)c1ccc(-c2cnco2)cc1 |
| < 1000 | O=C(c1ccncc1)c1cc(Cl)ccc1NS(=O)(=O)c1ccc(N2CCCCC2)cc1 |
| < 1000 | CC(C)(C)c1ccc(S(=O)(=O)Nc2ccc(Cl)cc2C(=O)c2cc[n+]([O-])c(Cl)c2)cc1 |
| < 1000 | CC(C)(C)c1ccc(S(=O)(=O)Nc2ccc(F)cc2C(=O)c2ccncc2)cc1 |
| < 1000 | O=C(c1ccncc1)c1cc(Cl)ccc1NS(=O)(=O)c1ccc(N2CCOCC2)cc1 |
| < 1000 | Cc1ncccc1C(=O)c1cc(Cl)ccc1NS(=O)(=O)c1ccc(OC(C)C)cc1 |
| < 1000 | CC(C)(C)c1ccc(S(=O)(=O)Nc2ccc(Cl)cc2C(=O)c2nccs2)cc1 |
| < 1000 | CC(C)Sc1ccc(S(=O)(=O)Nc2ccc(Cl)cc2C(=O)c2ccncc2)cc1 |
| < 1000 | O=C(c1ccncc1)c1cc(Cl)ccc1NS(=O)(=O)c1ccc(-c2ccco2)cc1 |
| < 1000 | Cn1nncc1C(=O)c1cc(Cl)ccc1NS(=O)(=O)c1ccc(C(C)(C)C)cc1 |
| > 1000 | O=C(c1ccncc1)c1cc(Cl)ccc1NS(=O)(=O)c1ccc(-c2cccnc2F)cc1 |
| < 1000 | CC(C)(c1ccc(S(=O)(=O)Nc2ccc(Cl)cc2C(=O)c2ccnc(Cl)c2)cc1)c1ncco1 |
| < 1000 | CC(C)(c1ccc(S(=O)(=O)Nc2ccc(Cl)cc2C(=O)c2ccncc2)cc1)c1cnco1 |
| < 1000 | COC(=O)CCc1ccc(S(=O)(=O)Nc2ccc(Cl)cc2C(=O)c2ccc(C)[n+]([O-])c2)cc1 |
| < 1000 | CC(C)(C)c1ccc(S(=O)(=O)Nc2cc(Cl)ccc2C(=O)c2ccncc2)cc1 |
| > 1000 | Cc1cccc(C(=O)c2cc(Cl)ccc2NS(=O)(=O)c2ccc(-c3cnc(C)o3)cc2)n1 |
| > 1000 | CC(C)(C)c1ccc(S(=O)(=O)Nc2ccc(S(=O)(=O)N3CCCC3)cc2C(=O)c2ccncc2)cc1 |
| < 1000 | CC(C)(C)c1ccc(S(=O)(=O)Nc2ccc(Cl)cc2C(=O)c2ccnc(Cl)c2)cc1 |
| < 1000 | CC(C)(c1ccc(S(=O)(=O)Nc2ccc(Cl)cc2C(=O)c2ccc[n+]([O-])c2)cc1)c1ncco1 |
